Key:
[1] = Phase 1 oral bioavailability study of Rigosertib soft gelatin capsule in MDS patients, fasted and fed, vs IV; format: in vivo, human; details: for AUC / Cmax / Tmax / half-life / bioavailability: human, plasma, MDS patients
Experimental: A Phase 1 study was conducted to assess oral bioavailability of a novel oral ON 01910.Na (Rigosertib) soft gelatin capsule formulation of Example 1 in MDS patients under fasted and fed conditions. This was a single-dose, three-treatment, three-period sequential design for studying the effects of food on the bioavailability of an immediate-release soft gelatin capsule formulation. The following dosing groups were tested in 12 patients: IV Dose 800 mg over 24 hours and oral dose 560 mg (2×280 mg capsules) under fasting and fed conditions. Plasma samples were collected pre-dose, over 32 hours (IV dose) or 8 hours (oral dose) after dose initiation. Rigosertib plasma levels were analyzed by a validated LC/MS/MS method. Pharmacokinetic parameters were estimated by non-compartmental analysis (WinNonlin®).

[2] = Phase I/II trials of intravenous Rigosertib in MDS patients: bone marrow blast response and overall survival
Experimental: According to one embodiment, Rigosertib was given as an intravenous infusion to MDS patients. In one trial, patients received 800 mg Rigosertib for three to five days every other week. According to another embodiment, patients received 650 to 1,700 mg Rigosertib for three to six days every other week. According to yet another embodiment, patients were initially treated with 800 mg to 1,500 mg Rigosertib for two days every week for three weeks followed by one week without treatment. The treatment schedule in these studies was later changed to 1,800 mg Rigosertib for three days every other week.
In this Example, bone marrow (BM) response and overall survival (OS) were analyzed in 60 patients (pts) with MDS, including 51 patients with refractory anemia and excess blasts (RAEB) and 9 patients with refractory cytopenia and multilineage dysplasia (RCMD) enrolled in 4 independent Phase 1/II clinical trials.
The patients were treated with Rigosertib administered as a continuous intravenous infusion (CIV) from 2 to 6 days weekly or every other week with BM response initially assessed per protocol by week 4 or 8 and every 8 weeks thereafter. Overall survival (OS) analyses were performed by the method of Kaplan-Meier.

[3] = Oral administration of Rigosertib 25 mg dose capsule in MDS patients, plasma level
[4] = iv, 800 mg, 800 mg IV (24 hr infusion)
[5] = po, 560 mg, 560 mg Oral (Fasting)
[6] = 39 RAEB-1, 2, t-pts refractory or relapsing after azacitidine/decitabine
[7] = higher risk MDS patients who had previously failed Vidaza or Dacogen

## COc1cc(OC)c(/C=C/S(=O)(=O)Cc2ccc(OC)c(NCC(=O)[O-])c2)c(OC)c1.[Na+] [Rigosertib, sodium (E)-2-{2-methoxy-5-[(2′,4′,6′-trimethoxystyrylsulfonyl)methyl]phenylamino}acetate]
[1]; 560 mg oral, fed vs fasting
  decrease of AUC after a meal as compared to fasting conditions: 61%
  decrease of Cmax after a meal as compared to fasting conditions: 77%
[1]; [4]
  AUC: 52700 ± 19200 ng·h/mL
  Cmax: 3140 ± 1130 ng/mL
  Tmax: 2.91 ± 1.3 h
  half-life: 3.25 ± 0.97 h
[1]; [5]
  AUC: 6890 ± 3980 ng·h/mL
  Cmax: 2420 ± 1260 ng/mL
  Tmax: 1 ± 0.45 h
  bioavailability: 34.9 ± 17.6%
  half-life: 2.79 ± 1.23 h
[1]; po, 560 mg, 560 mg Oral (Fed)
  AUC: 2710 ± 1510 ng·h/mL
  Cmax: 560 ± 310 ng/mL
  Tmax: 2.82 ± 1.15 h
  bioavailability: 13.8 ± 6.04%
  half-life: 2.61 ± 0.93 h
[2]; 15 patients refractory/relapsing after hypomethylating agents, 3-day infusions 1800 mg/day every other week
  patients still alive at 49 weeks: 47%
[2]; [6]
  N patients with Progressive Disease: 3
  N patients with Stable BM Response: 14
  N patients with ≥50% Blast Decrease: 13
[2]; 39 pts refractory/relapsing after azacitidine/decitabine, BM response Not Assessed
  Median OS: 11 weeks
[2]; 39 pts refractory/relapsing after azacitidine/decitabine, Progressive Disease
  Median OS: 10 weeks
[2]; 39 pts refractory/relapsing after azacitidine/decitabine, Stable BM Response
  Median OS: 40 weeks
[2]; 39 pts refractory/relapsing after azacitidine/decitabine, ≥50% Blast Decrease
  Median OS: 44 weeks
[2]; 51 RAEB-1, 2, t-pts
  N patients with Progressive Disease: 4
  N patients with Stable BM Response: 21
  N patients with ≥50% Blast Decrease: 16
[2]; 51 RAEB-1, 2, t-pts, BM response Not Assessed
  Median OS: 11 weeks
[2]; 51 RAEB-1, 2, t-pts, Progressive Disease
  Median OS: 13.5 weeks
[2]; 51 RAEB-1, 2, t-pts, Stable BM Response
  Median OS: 36 weeks
[2]; 51 RAEB-1, 2, t-pts, ≥50% Blast Decrease
  Median OS: 48 weeks
[2]; 60 MDS patients, CIV
  patients with hematological improvements: Nine
[2]; CIV infusions, MDS patients
  tolerability of infusions: well tolerated without evidence of bone marrow myelotoxicity
[2]; Intermediate-1 risk MDS patients, previously failed azacitidine or decitabine
  median survival: about 77 weeks
[2]; Intermediate-2 risk MDS patients, previously failed azacitidine or decitabine
  median survival: about 37 weeks
[2]; MDS patients who had previously failed azacitidine or decitabine
  decrease in immature bone marrow cells: about 50%
[2]; MDS patients, intravenous infusion, in general
  decrease or stabilization in the number of immature bone marrow cells (blasts): ≥ 50%
[2]; RAEB-1, 17 of 60 MDS patients, CIV
  Median OS: 43 weeks
[2]; RAEB-2, 21 of 60 MDS patients, CIV
  Median OS: 37 weeks
[2]; RAEB-T, 13 of 60 MDS patients, CIV
  Median OS: 20 weeks
[2]; RCMD, 9 of 60 MDS patients, CIV
  Median OS: 98 weeks
[2]; [7]
  decrease or stabilization in the number of immature bone marrow cells: ≥ 50%
  median survival: about 36 weeks
[3]; human, plasma, po, 25 mg
  half-life: ~10 h
[3]; oral, 25 mg dose capsule, MDS patients
  plasma peak level: 2 to 4 µM

Reference: patent US10576050B2, “Methods and compositions for treatment of cancer” (ONCONOVA THERAPEUTICS, INC., priority 2012, dated 2020)
